Data published in patent US6706740B2, “Fungicidal heterocyclic aromatic amides and their compositions, methods of use and preparation” (Dow AgroSciences LLC, priority 1999, dated 2004).
Like-named read-outs stand apart in the source and are kept apart here.

Columns and labels:
[1] = system: Magnaporthe grisea (Pyricularia oryzae—PYRIOR); experiment: microbe, parasite or virus in culture; assay type: cell-based; settings: Pyricularia oryzae, read-out: PYRIOR in vitro Growth Inhibition
[2] = system: Rhizoctonia solani (RHIZSO); experiment: microbe, parasite or virus in culture; assay type: cell-based; settings: Rhizoctonia solani, read-out: RHIZSO in vitro Growth Inhibition
Erysiphe graminis—ERYSGT = experiment: Powdery Mildew of Wheat, in vivo whole plant, 24 Hour Protectant; settings: for pest or weed control at 100 ppm: Erysiphe, read-out: ERYSGT in vivo 1 Day Protectant
[3] = system: Puccinia recondita—PUCCRT; experiment: Brown Rust of Wheat, in vivo whole plant, 24 Hour Protectant; settings: for pest or weed control at 100 ppm: Puccinia, read-out: PUCCRT in vivo 1 Day Protectant
[4] = system: Phytophthora infestans—PHYTIN; experiment: whole plant or invertebrate; assay type: in vivo; settings: Phytophthora, in Solanum lycopersicum, 24 h, read-out: PHYTIN in vivo 1 Day Protectant
[5] = system: Leptosphaeria nodorum—LEPTNO; experiment: Glume Blotch of Wheat, in vivo whole plant, 24 Hour Protectant; settings: for pest or weed control at 100 ppm: Leptosphaeria, read-out: LEPTNO in vivo 1 Day Protectant
[6] = system: Mycosphaerella graminicola (Septoria tritici—SEPTTR); experiment: In vitro fungal growth inhibition, Mycosphaerella graminicola (SEPTTR); assay type: cell-based; settings: Zymoseptoria tritici, read-out: SEPTTR in vitro Growth Inhibition
[7] = system: Phytophthora infestans (PHYTIN); experiment: microbe, parasite or virus in culture; assay type: cell-based; settings: Phytophthora infestans, read-out: PHYTIN in vitro Growth Inhibition
Ustilago maydis (USTIMA) = experiment: microbe, parasite or virus in culture; assay type: cell-based; settings: Mycosarcoma maydis, read-out: USTIMA in vitro Growth Inhibition
Septoria tritici—SEPTTR = experiment: Leaf Blotch of Wheat, in vivo whole plant, 24 Hour Protectant; settings: for pest or weed control at 100 ppm: Zymoseptoria tritici, 24 h, control of fungal infection vs untreated plants, read-out: SEPTTR in vivo 1 Day Protectant; for SEPTTR in vivo 1 Day Protectant: % control of fungal infection vs untreated plants
[8] = system: Stagonospora nodorum (Leptosphaeria nodorum—LEPTNO); experiment: In vitro fungal growth inhibition, Stagonospora nodorum (LEPTNO); assay type: cell-based; settings: Leptosphaeria, read-out: LEPTNO in vitro Growth Inhibition
[9] = 100 ppm spray, wheat, 24 hour protectant, control of fungal infection vs untreated plants
[10] = 100 ppm spray, wheat, 24 hour protectant
[11] = 100 ppm spray, wheat, 24 hour protectant, % control of fungal infection vs untreated plants
[12] = 100 ppm spray, 24 hour protectant, wheat, control of fungal infection vs untreated plants
[13] = 100 ppm spray, 24 hour protectant, wheat
[14] = wheat plants sprayed at 100 ppm, inoculated after 24 hours, control of fungal infection vs untreated plants
[15] = wheat plants sprayed at 100 ppm, inoculated after 24 hours

Row | SMILES | inhibition at 25 ppm [1] | inhibition at 25 ppm [2] | pest or weed control at 100 ppm [4] | inhibition at 25 ppm ([6]; 25 ppm in growth medium) | inhibition at 25 ppm [7] | inhibition at 25 ppm (Ustilago maydis (USTIMA)) | inhibition at 25 ppm ([8]; 25 ppm in growth medium) | further results
1 | COc1ccnc(C(=O)Nc2ccc(Oc3ccc(C#N)cc3)cc2)c1O [Compound 422] | > 80% | < 80% | 25 to 74% | < 80% | < 80% | < 80% | < 80% | pest or weed control at 100 ppm (Erysiphe graminis—ERYSGT; [9]): < 25%; pest or weed control at 100 ppm [3, 9]: < 25%; pest or weed control at 100 ppm [5, 9]: < 25%; pest or weed control at 100 ppm (Septoria tritici—SEPTTR; [10]): < 25%
2 | COc1ccnc(C(=O)NC(COC(=O)CC(C)O[Si](C)(C)C(C)(C)C)C(=O)OC(C)C)c1O (stereo not shown) [Compound 354] | < 80% | < 80% | < 25% |  | < 80% | < 80% |  | pest or weed control at 100 ppm (Erysiphe graminis—ERYSGT; [9]): 25 to 74%; PUCCRT in vivo 1 Day Protectant [3, 9]: + +; pest or weed control at 100 ppm [5, 9]: < 25%; inhibition at 25 ppm [6]: < 80%; pest or weed control at 100 ppm (Septoria tritici—SEPTTR; [10]): < 25%; inhibition at 25 ppm [8]: < 80%
3 | CCC(C)C(=O)O[C@H]1[C@H](C)OC(=O)[C@@H](NC(=O)c2nccc(OC)c2OC(C)=O)COC(=O)[C@@H]1Cc1ccccc1 (stereo partly shown) [Compound 701] | < 80% | < 80% | < 25% | > 80% | < 80% | < 80% | > 80% | ERYSGT in vivo 1 Day Protectant (Erysiphe graminis—ERYSGT; [11]): + +; PUCCRT in vivo 1 Day Protectant [3, 11]: + +; LEPTNO in vivo 1 Day Protectant [5, 11]: + +; SEPTTR in vivo 1 Day Protectant (Septoria tritici—SEPTTR; [10]): + +
4 | CC(NC(=O)c1ncccc1O)c1ccc(Cl)cc1 (stereo not shown) [Compound 230] | > 80% | < 80% | < 25% | > 80% | > 80% | < 80% | > 80% | pest or weed control at 100 ppm (Erysiphe graminis—ERYSGT; [12]): < 25%; pest or weed control at 100 ppm [3, 12]: < 25%; pest or weed control at 100 ppm [5, 12]: 25 to 74%; pest or weed control at 100 ppm (Septoria tritici—SEPTTR; [13]): 25 to 74%
5 | COc1ccnc(C(=O)N[C@H]2COC(=O)[C@H](Cc3ccccc3)[C@@H](OC(=O)C(C)C)[C@H](C)OC2=O)c1OC(=O)c1cnc(Cl)c(Cl)c1 [Compound 670] | < 80% | < 80% | < 25% | < 80% | > 80% | < 80% | > 80% | pest or weed control at 100 ppm (Erysiphe graminis—ERYSGT; [11]): < 25%; PUCCRT in vivo 1 Day Protectant [3, 11]: + +; LEPTNO in vivo 1 Day Protectant [5, 11]: + +; SEPTTR in vivo 1 Day Protectant (Septoria tritici—SEPTTR; [10]): + +
6 | COc1ccnc(C(=O)NC2C[C@H](C)C[C@H](c3ccccn3)C2)c1O (stereo partly shown) [Compound 259] | < 80% | < 80% | 25 to 74% | < 80% | < 80% | < 80% | < 80% | pest or weed control at 100 ppm (Erysiphe graminis—ERYSGT; [12]): < 25%; pest or weed control at 100 ppm [3, 12]: 25 to 74%; pest or weed control at 100 ppm [5, 12]: 25 to 74%; pest or weed control at 100 ppm (Septoria tritici—SEPTTR; [13]): 25 to 74%
7 | CC(C)C(=O)O[C@H]1[C@H](C)OC(=O)[C@@H](NC(=O)c2nccnc2O)COC(=O)[C@@H]1Cc1ccccc1 [Compound 534] | > 80% | < 80% | < 25% |  | > 80% | < 80% |  | pest or weed control at 100 ppm (Erysiphe graminis—ERYSGT; [14]): < 25%; pest or weed control at 100 ppm [3, 14]: 25 to 74%; LEPTNO in vivo 1 Day Protectant [5, 14]: + +; inhibition at 25 ppm ([6]; 25 ppm in the growth medium): > 80%; pest or weed control at 100 ppm (Septoria tritici—SEPTTR; [15]): 25 to 74%; inhibition at 25 ppm ([8]; 25 ppm in the growth medium): > 80%
8 | CCCCCc1ccc(C(C)NC(=O)c2nc(Br)ccc2O)cc1 (stereo not shown) [Compound 489] | < 80% | < 80% | < 25% |  | < 80% | < 80% |  | pest or weed control at 100 ppm (Erysiphe graminis—ERYSGT; [14]): < 25%; pest or weed control at 100 ppm [3, 14]: 25 to 74%; pest or weed control at 100 ppm [5, 14]: < 25%; inhibition at 25 ppm ([6]; 25 ppm in the growth medium): < 80%; pest or weed control at 100 ppm (Septoria tritici—SEPTTR; [15]): < 25%; inhibition at 25 ppm ([8]; 25 ppm in the growth medium): < 80%
